Biological target: T1, TycA (Brevibacillus parabrevis, UniProt P09095)
T1 construct: this wild-type tycA cDNA encoding the A-, T-, and E-domains was subcloned into a pSU18 vector; made in house; host or cells: Escherichia coli BL21(DE3)
T1 sequence (P09095 with tags, fused parts or gaps): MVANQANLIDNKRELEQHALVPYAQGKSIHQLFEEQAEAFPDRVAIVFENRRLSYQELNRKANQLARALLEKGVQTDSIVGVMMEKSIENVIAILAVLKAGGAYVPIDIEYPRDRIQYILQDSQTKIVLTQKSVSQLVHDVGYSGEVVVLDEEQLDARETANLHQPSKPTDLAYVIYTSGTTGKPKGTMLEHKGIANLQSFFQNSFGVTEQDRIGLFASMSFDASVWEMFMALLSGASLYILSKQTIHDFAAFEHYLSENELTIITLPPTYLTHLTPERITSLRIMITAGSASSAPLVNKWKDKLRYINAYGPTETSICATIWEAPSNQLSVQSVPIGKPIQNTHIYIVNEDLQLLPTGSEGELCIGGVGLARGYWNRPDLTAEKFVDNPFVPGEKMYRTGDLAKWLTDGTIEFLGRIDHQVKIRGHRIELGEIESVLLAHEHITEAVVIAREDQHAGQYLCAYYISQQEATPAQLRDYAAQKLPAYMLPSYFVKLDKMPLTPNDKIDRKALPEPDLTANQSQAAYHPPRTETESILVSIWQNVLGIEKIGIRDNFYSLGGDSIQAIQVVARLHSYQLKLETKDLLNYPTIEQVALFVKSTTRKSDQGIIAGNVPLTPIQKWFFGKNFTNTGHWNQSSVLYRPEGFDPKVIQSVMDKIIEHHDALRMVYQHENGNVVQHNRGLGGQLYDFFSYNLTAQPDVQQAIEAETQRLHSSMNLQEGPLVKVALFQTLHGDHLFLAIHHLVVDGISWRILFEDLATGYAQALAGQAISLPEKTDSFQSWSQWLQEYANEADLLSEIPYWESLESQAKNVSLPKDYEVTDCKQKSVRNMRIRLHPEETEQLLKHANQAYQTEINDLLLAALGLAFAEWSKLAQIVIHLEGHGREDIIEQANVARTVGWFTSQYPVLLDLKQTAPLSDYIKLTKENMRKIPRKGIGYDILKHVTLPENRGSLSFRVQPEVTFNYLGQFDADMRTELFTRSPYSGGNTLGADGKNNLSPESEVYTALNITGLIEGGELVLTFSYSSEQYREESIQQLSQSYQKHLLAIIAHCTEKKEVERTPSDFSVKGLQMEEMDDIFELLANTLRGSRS
Experiment: CoA ligase reaction kinetics, TycA
Format: biochemical, Brevibacillus brevis
Conditions: for kcat^CoA: turnover with CoA at apparent saturation
Description: Under steady-state conditions, (S)-α-phenylalanine, (R)-β-phenylalanine, and (2R,3S)-phenylisoserine at 5, 10, 20, 40, 80, 160, 250, 500, 1000 and 2000 μM were separately incubated with TycA or TycA-S563A (20 μg) for 30 min. At the end of each reaction, and prior to mass spectrometry analysis, acetyl CoA (1 μM) was added as the internal standard to each sample to correct for variations of the analyte. The products of the enzyme-catalyzed reaction were quantified by a liquid chromatography multiple reaction monitoring (LC-ESI-MRM) mass spectrometry technique (Anderson & Hunter, Mol. Cell. Proteomics 5: 573-588 (2006)) on the Quattro-Premier Electro-Spray Mass Spectrometer coupled with Acquity® UPLC system fitted with a C18 Ascentis Express column (2.5×50 mm, 2.7 μm) at 30° C. An aliquot (5 μL) of each sample was loaded onto the column and the analytes were eluted with a solvent gradient of acetonitrile (Solvent A) in 0.05% triethylamine in distilled water (Solvent B). Elution was held at 2.5% Solvent A for 3.17 min, increased to 100% Solvent A over 5 sec with a 2-min hold, and then returned to 2.5% Solvent A over 5 sec with a 50-sec hold. The flow rate employed was 0.4 mL/min. The effluent from the chromatography column was directed to the mass spectrometer where the first quadrupole mass analyzer (in negative ion mode) was set to select for the molecular ion of a biosynthesized acyl CoA product. The selected ion was then directed to a collision gas chamber where the collision energy was optimized to maximize the abundance of a single signature fragment ion (m/z 408, characteristic of acyl CoA thioesters) resolved in the second quadrupole mass analyzer by the MRM method. The peak area under the curve of fragment ion m/z 408 for each biosynthetic phenylpropionyl CoA thioester was converted to concentration by comparing the peak area of the same ion produced by authentic CoA (at 0.05, 0.1, 0.2, 0.4, 0.8, 1.6, 3.2, 6.4, 12.5, 25, 50, 100 μM) using linear regression analysis.
The KM values of TycA and TycA-S563A for CoA were assessed by incubating each enzyme separately with (S)-α-phenylalanine (1 mM), MgCl2 (3 mM), ATP (1 mM), and CoA at 0.05, 0.1, 0.2, 0.4, 0.8, 1.6, 3.2, 6.4, 12.8 and 25.6 mM at 31° C. for 20 min. At the end of each reaction and prior to mass spectrometry analysis, acetyl CoA (1 μM) was added as the internal standard to each sample to correct for variations of the analyte. The products of the enzyme-catalyzed reaction were quantified by LC-ESI-MRM, and the monitored fragment ion (m/z 408) derived from the CoA moiety of the thioester analytes in the effluent was quantified identically to the procedure described earlier herein.

[1] = TycA, CoA with (S)-α-Phe as cosubstrate

| Compound | Km (TycA, CoA 1 mM, ATP 1 mM, MgCl2 3 mM, 31° C., CoA with (S)-α-Phe as cosubstrate) [µM] | kcat^CoA [1] [s⁻¹] | catalytic preference of TycA, higher than for (2R,3S)-Phenylisoserine (TycA with CoA) [fold] | catalytic preference of TycA, higher than for (S)-α-Phe (TycA with CoA) [fold] |
| --- | --- | --- | --- | --- |
| N[C@@H](c1ccccc1)[C@@H](O)C(=O)O [(2R,3S)-PheIso, (2R,3S)-phenylisoserine] | 89.3 ± 15 | 0.00417 ± 0.00033 | – | – |
| N[C@H](CC(=O)O)c1ccccc1 [(R)-β-Phe, (R)-β-phenylalanine] | – | 0.0267 ± 0.005 | 10 | 5 |

— patent US20170342451A1, “BIOSYNTHESIS OF PACLITAXEL INTERMEDIATE” (Board of Trustees of Michigan State University, priority 2012, published 2017)
